Measured values: patent publication US9938281B2 (Merck Sharp & Dohme Corp., priority 2012, dated 2018)

How the values were obtained:
[1] = biological target: T1, PI3K-delta (Homo sapiens, UniProt O00329); assay: HTRF PI3K biochemical assay, delta isoform; settings: form screened (neutral or TFA salt) given, read-out: PI3Kdelta IC50
T1 construct: purchased Upstate; Millipore 14-604

[2] = biological target: T2, PI3K-alpha (Homo sapiens, UniProt P42336); assay: HTRF PI3K biochemical assay, alpha isoform; settings: ratio PI3K-alpha IC50 value / PI3K-delta IC50 value
T2 construct: purchased Upstate; Millipore 14-602
T2 sequence (P42336 whole entry, canonical isoform): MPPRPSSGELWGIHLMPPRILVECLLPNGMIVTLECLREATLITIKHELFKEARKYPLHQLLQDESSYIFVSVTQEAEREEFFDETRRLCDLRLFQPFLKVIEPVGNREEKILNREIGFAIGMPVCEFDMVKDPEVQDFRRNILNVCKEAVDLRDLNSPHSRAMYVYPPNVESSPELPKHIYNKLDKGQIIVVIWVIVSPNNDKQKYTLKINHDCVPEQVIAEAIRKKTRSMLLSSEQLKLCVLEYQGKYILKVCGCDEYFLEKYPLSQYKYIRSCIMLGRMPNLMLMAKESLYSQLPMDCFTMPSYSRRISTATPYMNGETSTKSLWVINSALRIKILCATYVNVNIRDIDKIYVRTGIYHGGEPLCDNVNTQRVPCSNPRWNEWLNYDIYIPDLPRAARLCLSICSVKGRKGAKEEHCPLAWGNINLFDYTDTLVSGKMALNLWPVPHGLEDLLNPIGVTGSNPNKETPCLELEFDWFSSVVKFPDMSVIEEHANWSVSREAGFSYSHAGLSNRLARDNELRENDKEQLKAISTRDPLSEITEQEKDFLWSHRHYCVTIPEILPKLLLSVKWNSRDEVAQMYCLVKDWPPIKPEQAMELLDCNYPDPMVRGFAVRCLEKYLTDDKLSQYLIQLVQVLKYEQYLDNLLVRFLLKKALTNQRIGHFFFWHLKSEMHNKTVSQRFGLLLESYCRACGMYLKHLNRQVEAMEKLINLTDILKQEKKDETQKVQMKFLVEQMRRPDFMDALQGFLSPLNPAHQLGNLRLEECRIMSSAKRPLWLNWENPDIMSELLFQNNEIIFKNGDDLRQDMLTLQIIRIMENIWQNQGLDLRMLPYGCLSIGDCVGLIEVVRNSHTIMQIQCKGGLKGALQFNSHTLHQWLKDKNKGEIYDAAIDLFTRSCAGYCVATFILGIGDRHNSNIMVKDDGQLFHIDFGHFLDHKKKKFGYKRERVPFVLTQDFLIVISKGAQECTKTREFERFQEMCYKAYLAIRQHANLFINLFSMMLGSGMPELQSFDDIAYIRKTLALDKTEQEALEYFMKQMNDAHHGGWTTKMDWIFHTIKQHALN
T2 sequence (P27986 whole entry partner, canonical isoform): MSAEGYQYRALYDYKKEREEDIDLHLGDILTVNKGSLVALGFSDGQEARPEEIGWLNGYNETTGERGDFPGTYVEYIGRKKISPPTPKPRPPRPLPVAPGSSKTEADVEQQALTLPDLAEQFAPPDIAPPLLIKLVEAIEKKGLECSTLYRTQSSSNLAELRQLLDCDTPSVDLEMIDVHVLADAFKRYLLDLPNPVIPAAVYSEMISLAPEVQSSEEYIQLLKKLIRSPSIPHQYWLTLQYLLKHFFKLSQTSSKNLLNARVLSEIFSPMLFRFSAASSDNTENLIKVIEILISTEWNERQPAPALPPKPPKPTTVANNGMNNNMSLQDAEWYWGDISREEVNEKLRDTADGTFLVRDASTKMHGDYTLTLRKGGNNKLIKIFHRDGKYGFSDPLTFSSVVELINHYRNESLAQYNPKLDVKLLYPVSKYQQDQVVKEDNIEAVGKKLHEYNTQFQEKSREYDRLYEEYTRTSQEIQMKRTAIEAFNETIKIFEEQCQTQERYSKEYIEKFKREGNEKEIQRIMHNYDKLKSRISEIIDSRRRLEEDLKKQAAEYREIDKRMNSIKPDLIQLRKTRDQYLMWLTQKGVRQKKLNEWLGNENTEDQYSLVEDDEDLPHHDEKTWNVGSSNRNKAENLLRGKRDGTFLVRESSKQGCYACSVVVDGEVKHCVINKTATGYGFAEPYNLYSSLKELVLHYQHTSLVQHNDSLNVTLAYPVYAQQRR

T1 sequence (O00329 whole entry, canonical isoform): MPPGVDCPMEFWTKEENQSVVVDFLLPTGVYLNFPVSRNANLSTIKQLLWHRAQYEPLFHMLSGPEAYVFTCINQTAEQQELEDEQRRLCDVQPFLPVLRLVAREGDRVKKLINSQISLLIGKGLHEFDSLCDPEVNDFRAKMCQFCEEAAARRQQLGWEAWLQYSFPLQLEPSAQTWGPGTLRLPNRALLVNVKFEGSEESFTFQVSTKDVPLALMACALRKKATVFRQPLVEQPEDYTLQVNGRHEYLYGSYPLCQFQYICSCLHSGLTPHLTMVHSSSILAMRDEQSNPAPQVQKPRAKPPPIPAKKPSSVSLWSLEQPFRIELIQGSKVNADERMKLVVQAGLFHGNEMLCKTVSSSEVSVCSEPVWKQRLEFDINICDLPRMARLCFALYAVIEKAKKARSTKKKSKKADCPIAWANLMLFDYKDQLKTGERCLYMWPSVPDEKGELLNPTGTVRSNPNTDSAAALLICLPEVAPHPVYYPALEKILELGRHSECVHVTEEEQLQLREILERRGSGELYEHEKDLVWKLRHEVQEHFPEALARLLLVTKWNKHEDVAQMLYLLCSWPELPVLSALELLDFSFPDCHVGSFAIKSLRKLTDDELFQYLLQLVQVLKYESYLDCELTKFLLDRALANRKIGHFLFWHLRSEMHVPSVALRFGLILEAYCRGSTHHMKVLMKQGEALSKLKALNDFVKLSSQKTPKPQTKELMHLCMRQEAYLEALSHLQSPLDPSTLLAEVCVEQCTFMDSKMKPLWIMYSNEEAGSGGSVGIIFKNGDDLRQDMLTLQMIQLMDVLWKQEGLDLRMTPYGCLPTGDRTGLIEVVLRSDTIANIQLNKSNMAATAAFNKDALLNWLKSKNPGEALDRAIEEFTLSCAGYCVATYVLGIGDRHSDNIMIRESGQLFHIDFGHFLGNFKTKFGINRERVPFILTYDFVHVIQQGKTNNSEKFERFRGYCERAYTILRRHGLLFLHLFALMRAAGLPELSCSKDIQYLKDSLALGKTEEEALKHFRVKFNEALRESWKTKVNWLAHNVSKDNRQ
T1 sequence (P27986 whole entry partner, canonical isoform): as the sequence (P27986 whole entry partner, canonical isoform) above

CCn1c(-c2ccc(OC)nc2)nc2c(N[C@H]3CCN(C(=O)C4CC4)C3)ncnc21 [Compound 2-50, N-[(3S)-1-(cyclopropylcarbonyl)pyrrolidin-3-yl]-9-ethyl-8-(6-methoxypyridin-3-yl)-9H-purin-6-amine]
IC50 [1]: < 1 nM
Selectivity versus PI3Kalpha [2]: >10

CCn1c(-c2ccc(C(F)(F)F)nc2)nc2c(N[C@H]3CCN(C(=O)[C@@H]4CC4(C)C)C3)ncnc21 [Compound 2-51, N-[(3S)-1-{[(1R)-2,2-dimethylcyclopropyl]carbonyl}pyrrolidin-3-yl]-9-ethyl-8-[6-(trifluoromethyl)pyridin-3-yl]-9H-purin-6-amine]
IC50 [1]: < 1 nM
Selectivity versus PI3Kalpha [2]: >10

CCn1c(-c2cnc(C)nc2)nc2c(N[C@H]3C[C@H](CO)N(C(=O)C4CC4)C3)ncnc21 [Compound 2-52, [(2R,4S)-1-(cyclopropylcarbonyl)-4-{[9-ethyl-8-(2-methylpyrimidin-5-yl)-9H-purin-6-yl]amino}pyrrolidin-2-yl]methanol]
IC50 [1]: 4.9 nM
Selectivity versus PI3Kalpha [2]: >10

CCn1c(-c2cnc(C)nc2)nc2c(N[C@H]3C[C@H](C(=O)OC)N(C(=O)C4CC4)C3)ncnc21 [Compound 2-53, methyl (4S)-1-(cyclopropylcarbonyl)-4-{[9-ethyl-8-(2-methylpyrimidin-5-yl)-9H-purin-6-yl]amino}-D-prolinate]
IC50 [1]: 4.7 nM
Selectivity versus PI3Kalpha [2]: >10

CCn1c(-c2cnc(C)nc2)nc2c(N[C@H]3C[C@@H](C(=O)OC)N(C(=O)C4CC4)C3)ncnc21 [Compound 2-54, methyl (4S)-1-(cyclopropylcarbonyl)-4-{[9-ethyl-8-(2-methylpyrimidin-5-yl)-9H-purin-6-yl]amino}-L-prolinate]
IC50 [1]: 63 nM
Selectivity versus PI3Kalpha [2]: >10

CCn1c(-c2cnc(C)nc2)nc2c(N[C@H]3CCN(C(=O)C4(COC)CCC4)C3)ncnc21 [Compound 2-57, 9-ethyl-N-[(3S)-1-{[1-(methoxymethyl)cyclobutyl]carbonyl}pyrrolidin-3-yl]-8-(2-methylpyrimidin-5-yl)-9H-purin-6-amine]
IC50 [1]: 7.1 nM
Selectivity versus PI3Kalpha [2]: >10

CCn1c(-c2cnc(C)nc2)nc2c(N[C@H]3CCN(C(=O)C4(O)CCCC4)C3)ncnc21 [Compound 2-58, 1-{[(3S)-3-{[9-ethyl-8-(2-methylpyrimidin-5-yl)-9H-purin-6-yl]amino}pyrrolidin-1-yl]carbonyl}cyclopentanol]
IC50 [1]: 22 nM
Selectivity versus PI3Kalpha [2]: >10

CCn1c(-c2cnc(C)nc2)nc2c(N[C@H]3CCN(C(=O)C4CC(C)(C)C4)C3)ncnc21 [Compound 2-59, N-{(3S)-1-[(3,3-dimethylcyclobutyl)carbonyl]pyrrolidin-3-yl}-9-ethyl-8-(2-methylpyrimidin-5-yl)-9H-purin-6-amine]
IC50 [1]: < 1 nM
Selectivity versus PI3Kalpha [2]: >10

CCn1c(-c2cnc(C)nc2)nc2c(N[C@H]3CCN(C(=O)C4C(C)(C)C4(C)C)C3)ncnc21 [Compound 2-60, 9-ethyl-8-(2-methylpyrimidin-5-yl)-N-{(3S)-1-[(2,2,3,3-tetramethylcyclopropyl)carbon-yl]pyrrolidin-3-yl}-9H-purin-6-amine]
IC50 [1]: 1.6 nM
Selectivity versus PI3Kalpha [2]: >10

CCn1c(-c2cnc(C)nc2)nc2c(N[C@H]3CCN(C(=O)C4(COC)CC4)C3)ncnc21 [Compound 2-61, 9-ethyl-N-[(3S)-1-{[1-(methoxymethyl)cyclopropyl]carbonyl}pyrrolidin-3-yl]-8-(2-methylpyrimidin-5-yl)-9H-purin-6-amine]
IC50 [1]: 23 nM
Selectivity versus PI3Kalpha [2]: >10

CCn1c(-c2cnc(C)nc2)nc2c(N[C@H]3CCN(C(=O)C4(C#N)CCCC4)C3)ncnc21 [Compound 2-62, 1-{[(3S)-3-{[9-ethyl-8-(2-methylpyrimidin-5-yl)-9H-purin-6-yl]amino}pyrrolidin-1-yl]carbonyl}cyclopentanecarbo-nitrile]
IC50 [1]: 6 nM
Selectivity versus PI3Kalpha [2]: >10

CCn1c(-c2cnc(C)nc2)nc2c(N[C@H]3CCN(C(=O)C4(C#N)CC4)C3)ncnc21 [Compound 2-65, 1-{[(3S)-3-{[9-ethyl-8-(2-methylpyrimidin-5-yl)-9H-purin-6-yl]amino}pyrrolidin-1-yl]carbonyl}cyclopropanecarbo-nitrile]
IC50 [1]: 11 nM
Selectivity versus PI3Kalpha [2]: >10

CCn1c(-c2cnc(C)nc2)nc2c(N[C@H]3CCN(C(=O)C4(O)CC4)C3)ncnc21 [Compound 2-66, 1-{[(3S)-3-{[9-ethyl-8-(2-methylpyrimidin-5-yl)-9H-purin-6-yl]amino}pyrrolidin-1-yl]carbonyl}cyclopropanol]
IC50 [1]: 10 nM
Selectivity versus PI3Kalpha [2]: >10

CCn1c(-c2cnc(C)nc2)nc2c(N[C@H]3CCN(C(=O)c4cncn4C)C3)ncnc21 [Compound 2-69, [(3S)-3-{[9-ethyl-8-(2-methylpyrimidin-5-yl)-9H-purin-6-yl]amino}pyrrolidin-1-yl](1-methyl-1H-imidazol-5-yl)methanone]
IC50 [1]: 3.8 nM
Selectivity versus PI3Kalpha [2]: >10

CCn1c(-c2cnc(C)nc2)nc2c(N[C@H]3CCN(C(=O)c4cc(C)on4)C3)ncnc21 [Compound 2-70, 9-ethyl-N-{(3S)-1-[(5-methylisoxazol-3-yl)carbonyl]pyrrolidin-3-yl}-8-(2-methylpyrimidin-5-yl)-9H-purin-6-amine]
IC50 [1]: 7.4 nM
Selectivity versus PI3Kalpha [2]: >10

CCn1c(-c2cnc(C)nc2)nc2c(N[C@H]3CCN(C(=O)c4nnsc4C)C3)ncnc21 [Compound 2-71, 9-ethyl-8-(2-methylpyrimidin-5-yl)-N-{(3S)-1-[(5-methyl-1,2,3-thiadiazol-4-yl)carbonyl]pyrrolidin-3-yl}-9H-purin-6-amine]
IC50 [1]: 4.2 nM
Selectivity versus PI3Kalpha [2]: >10

CCn1c(-c2cnc(C)nc2)nc2c(N[C@H]3CCN(C(=O)c4cocn4)C3)ncnc21 [Compound 2-72, 9-ethyl-8-(2-methylpyrimidin-5-yl)-N-[(3S)-1-(1,3-oxazol-4-ylcarbonyl)pyrrolidin-3-yl]-9H-purin-6-amine]
IC50 [1]: 2.8 nM
Selectivity versus PI3Kalpha [2]: >10

CCn1c(-c2cnc(C)nc2)nc2c(N[C@H]3CCN(C(=O)c4cnn(C)c4)C3)ncnc21 [Compound 2-73, 9-ethyl-N-{(3S)-1-[(1-methyl-1H-pyrazol-4-yl)carbonyl]pyrrolidin-3-yl}-8-(2-methylpyrimidin-5-yl)-9H-purin-6-amine]
IC50 [1]: 4.2 nM
Selectivity versus PI3Kalpha [2]: >10

CCn1c(-c2cnc(C)nc2)nc2c(N[C@H]3CCN(C(=O)c4ocnc4C)C3)ncnc21 [Compound 2-74, 9-ethyl-N-{(3S)-1-[(4-methyl-1,3-oxazol-5-yl)carbonyl]pyrrolidin-3-yl}-8-(2-methylpyrimidin-5-yl)-9H-purin-6-amine]
IC50 [1]: 3.1 nM
Selectivity versus PI3Kalpha [2]: >10

CCn1c(-c2cnc(C)nc2)nc2c(N[C@H]3CCN(C(=O)c4cn(C)nn4)C3)ncnc21 [Compound 2-75, 9-ethyl-8-(2-methylpyrimidin-5-yl)-N-{(3S)-1-[(1-methyl-1H-1,2,3-triazol-4-yl)carbonyl]pyrrolidin-3-yl}-9H-purin-6-amine]
IC50 [1]: 4.7 nM
Selectivity versus PI3Kalpha [2]: >10

CCn1c(-c2cnc(C)nc2)nc2c(N[C@H]3CCN(C(=O)C45CC(C4)C5)C3)ncnc21 [Compound 2-77, N-[(3S)-1-(bicyclo[1.1.1]pent-1-ylcarbonyl)pyrrolidin-3-yl]-9-ethyl-8-(2-methylpyrimidin-5-yl)-9H-purin-6-amine]
IC50 [1]: 2.1 nM
Selectivity versus PI3Kalpha [2]: >10

CCn1c(-c2cnc(C)nc2)nc2c(N[C@H]3CCN(C(=O)C4CCNCC4)C3)ncnc21 [Compound 2-78, 9-ethyl-8-(2-methylpyrimidin-5-yl)-N-[(3S)-1-(piperidin-4-ylcarbonyl)pyrrolidin-3-yl]-9H-purin-6-amine]
IC50 [1]: 4.6 nM
Selectivity versus PI3Kalpha [2]: >10

CCn1c(-c2cnc(C)nc2)nc2c(N[C@H]3CCN(C(=O)C4CN(C(C)C)C4)C3)ncnc21 [Compound 2-79, 9-ethyl-N-[(3S)-1-{[1-(1-methylethyl)azetidin-3-yl]carbonyl}pyrrolidin-3-yl]-8-(2-methylpyrimidin-5-yl)-9H-purin-6-amine]
IC50 [1]: 17 nM
Selectivity versus PI3Kalpha [2]: >10

CCn1c(-c2cnc(C)nc2)nc2c(N[C@H]3CCN(C(=O)C(C)(C)N)C3)ncnc21 [Compound 2-80, N-[(3S)-1-(2-amino-2-methylpropanoyl)pyrrolidin-3-yl]-9-ethyl-8-(2-methylpyrimidin-5-yl)-9H-purin-6-amine]
IC50 [1]: 61 nM
Selectivity versus PI3Kalpha [2]: >10

CCn1c(-c2cnc(C)nc2)nc2c(N[C@H]3CCN(C(=O)C4(NC)CC4)C3)ncnc21 [Compound 2-82, 9-ethyl-N-[(3S)-1-{[1-(methylamino)cyclopropyl]car-bonyl}pyrrolidin-3-yl]-8-(2-methylpyrimidin-5-yl)-9H-purin-6-amine]
IC50 [1]: 21 nM
Selectivity versus PI3Kalpha [2]: >10

CCn1c(-c2cnc(C)nc2)nc2c(N[C@H]3CCN(C(=O)C4(N)CC4)C3)ncnc21 [Compound 2-84, N-{(3S)-1-[(1-aminocyclopropyl)carbonyl]pyrrolidin-3-yl}-9-ethyl-8-(2-methylpyrimidin-5-yl)-9H-purin-6-amine]
IC50 [1]: 20 nM
Selectivity versus PI3Kalpha [2]: >10

CCn1c(-c2cnc(C)nc2)nc2c(N[C@H]3CCN(C(=O)CCNC)C3)ncnc21 [Compound 2-86, 9-ethyl-N-{(3S)-1-[3-(methylamino)propanoyl]pyrroli-din-3-yl}-8-(2-methylpyrimidin-5-yl)-9H-purin-6-amine]
IC50 [1]: 46 nM
Selectivity versus PI3Kalpha [2]: >10

CCn1c(-c2cnc(C)nc2)nc2c(N[C@H]3CCN(C(=O)[C@@H]4C[C@@H]4C)C3)ncnc21 [Compound 2-90, 9-ethyl-N-[(3S)-1-{[(1R,2S)-2-methylcyclopropyl]carbonyl}pyrrolidin-3-yl]-8(2-methylpyrimidin-5-yl)-9H-purin-6-amine]
IC50 [1]: 1.3 nM
Selectivity versus PI3Kalpha [2]: >10
